Laboratory results: patent publication US11767295B2, “Isoindole derivative” (TIANJIN HEMAY PHARMACEUTICAL CO., LTD., priority 2018, dated 2023)

How the values were obtained:
Assay type in all cases: in vivo
[1] = test system: Phorbol ester (TPA)-induced ear swelling in mice; experiment: Inhibition of phorbol ester (TPA)-induced ear swelling in mice (Biological Example 5); conditions: ICR mice, 5 hours after TPA modeling; for Ear Swelling Rate / Inhibitory Rate of Ear Swelling Degree: 2 mg/mouse on right ear; for Ear Swelling Rate: (right−left)/left ear weight; for Inhibitory Rate of Ear Swelling Degree: vs model and blank control; for Ear Swelling Degree: 50 mg/mL in acetone, 40 μL in 2 administrations (2 mg/mouse)
Method: (§1) 72 male ICR mice were selected and divided into 9 groups. There were 8 mice in each group.
(§2) Before the test, the animals were grouped and the hair around the right ear of the mice was removed.
(§3) 20 μL of respective drug was applied to the animals in each test group (a blank solvent was applied to the model control group). Modeling and induction were carried out after 1 h 10 min. Except for the blank group, 20 μL of TPA at a concentration of 125 μg/mL were applied to the right ears of the animals for induction. After induction for 10 minutes, 20 μL of respective drug were applied to the right ears of the animals in each test group (a blank solvent was applied to the model control group).
After modeling for 5 hours, ear pieces of both sides on the same location of animals in each group were taken with a punch and weighed to calculate the ear swelling degree, ear swelling rate and inhibitory rate.
(§4) The ear swelling degree and ear swelling rate after modeling and administration for 5 hours were analyzed and tested with One-Way ANOVA multiple-group test index in SPSS17.0. P<0.05 indicated there were statistical differences. Ear swelling degree (mg)=right ear weight (mg)−left ear weight (mg); Ear swelling rate (%)=(right ear weight−left ear weight)/left ear weight×100%; Inhibitory rate of ear swelling degree (%)=1−(ear swelling degree of drug administration group−ear swelling degree of blank control group)/(ear swelling degree of model control group−ear swelling degree of blank control group)×100%.

[2] = test system: DNCB-induced atopic dermatitis in Balb/c mice; experiment: Efficacy evaluation test of DNCB-induced atopic dermatitis in Balb/c mice model (Biological Example 1); conditions: BID × 10
Method: 60 healthy male SPF Balb/c mice, each of which the body weight was 19-21 g, were randomly divided into 6 groups by body weight. There were 10 mice in each group.
(§5) Before the test, the hair around the right ear of the mouse was removed to reduce the interference in the drug adhesion to the hair.
(§6) The start of the test was recorded as Day 1. The specific time for measuring ear thickness was slightly adjusted based on FIG. 1. After the end of the 18th day of the test, blood was taken from each animal to detect the concentration of immunoglobulin (IgE) in the serum (in accordance with the kit instructions). Both ears of the animal were cut off. Ear pieces were cut by an 8 mm punch at the fixed position of the ears and weighed. Differences in the swelling degrees of two ears were calculated.
The changes in mouse ear thickness and the ear weights of the same area and the IgE concentrations in the serum among different groups on the 18th day were analyzed and compared statistically with One-Way Anova in SPSS 17, respectively. The G test method was used to delete outliers. p<0.05 indicated there were statistical differences. Ear swelling degree (mg)=right ear weight (mg)−left ear weight (mg); Ear thickness change (mm)=right ear thickness (mm)−left ear thickness (mm); Inhibitory rate of ear swelling degree (%)=1−(ear swelling degree of drug administration group−ear swelling degree of blank control group)/(ear swelling degree of model control group−ear swelling degree of blank control group)×100%; Inhibitory rate of ear thickness change (%)=1−(ear thickness change of drug administration group−ear thickness change of blank control group)/(ear thickness change of model control group−ear thickness change of blank control group)×100%; Inhibitory rate of IgE (%)=1−(IgE concentration in administration group−IgE concentration in blank control group)/(IgE concentration in model control group−IgE concentration in blank control group)×100%.

[3] = test system: DNCB-induced atopic dermatitis in Balb/c mice; experiment: Efficacy evaluation test of DNCB-induced atopic dermatitis in Balb/c mice model (Biological Example 2); conditions: BID × 10; for Inhibitory Rate of Ear Swelling / Weight Changes of Animals, Day 10 / Weight Changes of Animals, Day 17 / Weight Changes of Animals, Day 18 / Ear Swelling Degree / IgE Concentration / Inhibitory Rate of IgE Concentration: 1 mg/mouse on ear; for Inhibitory Rate of Ear Swelling / Ear Swelling Degree / IgE Concentration / Inhibitory Rate of IgE Concentration: 18th day; for Inhibitory Rate of Ear Swelling / Inhibitory Rate of IgE Concentration: vs model and blank control; for Weight Changes of Animals, Day 1 / Weight Changes of Animals, Day 10 / Weight Changes of Animals, Day 17 / Weight Changes of Animals, Day 18: Balb/c mice, Mean ± S.D.; for Weight Changes of Animals, Day 1: 1 mg/mouse (50 mg/mL, 20 μL) on ear; for Ear Swelling Degree: right minus left ear piece weight; for IgE Concentration / Inhibitory Rate of IgE Concentration: serum
Method: 70 healthy male SPF Balb/c mice, each of which the weight was 19-21 g, were randomly divided into 7 groups by body weight. There were 10 mice in each group.
as §5
as §6, with “Day” for “Day 1. The specific time for measuring ear thickness was slightly adjusted based on FIG.”
The IgE concentrations in the serum of different groups on the 18th day were analyzed and compared statistically with One-Way Anova in SPSS 17, respectively. The G test method was used to delete outliers. p<0.05 indicated there were statistical differences. Ear swelling degree (mg)=right ear weight (mg)−left ear weight (mg); Inhibitory rate of ear swelling degree (%)=1−(ear swelling degree of drug administration group−ear swelling degree of blank control group)/(ear swelling degree of model control group−ear swelling degree of blank control group)×100%; Inhibitory rate of IgE (%)=1−(IgE concentration in administration group−IgE concentration in blank control group)/(IgE concentration in model control group−IgE concentration in blank control group)×100%.

[4] = test system: Phorbol ester (TPA)-induced ear swelling in mice; experiment: Inhibition of phorbol ester (TPA)-induced ear swelling in mice (Biological Example 6); conditions: ICR mice, 5 hours after TPA modeling; for Ear Swelling Rate / Inhibitory Rate of Ear Swelling Degree: 2 mg/mouse on right ear; for Ear Swelling Rate: (right−left)/left ear weight; for Inhibitory Rate of Ear Swelling Degree: vs model and blank control; for Ear Swelling Degree: 50 mg/mL in acetone, 40 μL in 2 administrations (2 mg/mouse)
Method: as §1, §2, §3
After modeling for 5 hours, ear pieces of both sides at the same location of animals in each group were taken with a punch and weighed to calculate the ear swelling degree, ear swelling rate and inhibitory rate.
as §4, with “P<0.05 indicated there were statistical differences.” left out, “(%)=1−(swelling” for “(%)=1−(ear swelling”, “group−swelling” for “group−ear swelling”, “group)/(swelling” for “group)/(ear swelling”

[5] = Balb/c mice, 1 mg/mouse on ear, Day 10, Mean ± S.D.
[6] = Balb/c mice, 1 mg/mouse on ear, Day 17, Mean ± S.D.
[7] = Balb/c mice, 1 mg/mouse on ear, Day 18, Mean ± S.D.

Row | SMILES | Ear Swelling Rate [1] | Inhibitory Rate of Ear Swelling Degree [1] | Ear Swelling Degree [1] | Ear Swelling Rate [4] | Inhibitory Rate of Ear Swelling Degree [4] | Ear Swelling Degree [4] | other results
1 | COC(=O)CC(c1ccc(OC)c(OC)c1)N1C(=O)c2cccc(NC(C)=O)c2C1=O (stereo not drawn) [Example 3, methyl 3-(4-acetamido-1,3-dioxoisoindolin-2-yl)-3-(3,4-dimethoxyphenyl)propionate] | 42.1 ± 19.3 % | 83.7% | 6.0 ± 2.5 mg |  |  |  | Inhibitory Rate of Ear Swelling Degree ([2]; 1 mg/mouse on ear, 18th day, vs model and blank control): 37.8%; Weight Changes of Animals, Day 1 ([2]; Balb/c mice, 1 mg/mouse (50 mg/mL, 20 μL) on ear, Day 1, Mean ± S.D.): 20.6 ± 0.8 g; Inhibitory Rate of Ear Thickness ([2]; Balb/c mice, 1 mg/mouse on ear, 18th day, vs model and blank control): 34.0%; Ear Thickness Change, Day 1 ([2]; Balb/c mice, 1 mg/mouse on ear, Day 1, Mean ± S.D.): 0.21 ± 0.01 mm; Ear Thickness Change, Day 10 [2, 5]: 0.38 ± 0.10 mm; Weight Changes of Animals, Day 10 [2, 5]: 22.3 ± 1.4 g; Ear Thickness Change, Day 17 [2, 6]: 0.58 ± 0.09 mm; Weight Changes of Animals, Day 17 [2, 6]: 22.1 ± 1.8 g; Ear Thickness Change, Day 18 [2, 7]: 0.58 ± 0.10 mm; Weight Changes of Animals, Day 18 [2, 7]: 21.7 ± 1.8 g; Ear Thickness ([2]; Table 4, Balb/c mice, 1 mg/mouse on ear, 18th day): 0.58 ± 0.10 mm; Ear Swelling Degree ([2]; right minus left ear piece weight (8 mm punch), 1 mg/mouse on ear, 18th day): 15.7 ± 4.5 mg; IgE Concentration ([2]; serum, 1 mg/mouse on ear, 18th day): 6526.5 ± 2171.9 ng/mL; Inhibitory Rate of IgE Concentration ([2]; serum, 1 mg/mouse on ear, 18th day, vs model and blank control): 27.0%
2 | CCOC(=O)CC(c1ccc(OC)c(OCC)c1)N1C(=O)c2cccc(NC(C)=O)c2C1=O (stereo not drawn) [Example 6, ethyl 3-(4-acetamido-1,3-dioxoisoindolin-2-yl)-3-(3-ethoxy-4-methoxyphenyl)propionate] | 36.4 ± 11.9 % | 87.3% | 5.1 ± 1.6 mg |  |  |  | Inhibitory Rate of Ear Swelling [3]: 41.7%; Weight Changes of Animals, Day 1 [3]: 21.4 ± 0.7 g; Weight Changes of Animals, Day 10 [3]: 22.8 ± 1.4 g; Weight Changes of Animals, Day 17 [3]: 23.3 ± 1.4 g; Weight Changes of Animals, Day 18 [3]: 22.7 ± 1.5 g; Ear Swelling Degree [3]: 17.1 ± 4.0 mg; IgE Concentration [3]: 5871.9 ± 2973.8 ng/mL; Inhibitory Rate of IgE Concentration [3]: 32.8%
3 | CCOc1cc(C(CC(=O)OC(C)C)N2C(=O)c3cccc(NC(C)=O)c3C2=O)ccc1OC (stereo not drawn) [Example 12, isopropyl 3-(4-acetamido-1,3-dioxoisoindolin-2-yl)-3-(3-ethoxy-4-methoxyphenyl)propionate] | 39.6 ± 14.0 % | 84.8% | 5.8 ± 2.3 mg |  |  |  | 
4 | CCOc1cc(C(CC(=O)OC)N2C(=O)c3cccc(NC(C)=O)c3C2=O)ccc1OC(C)C (stereo not drawn) [Example 18, methyl 3-(4-acetamido-1,3-dioxoisoindolin-2-yl)-3-(3-ethoxy-4-isopropoxyphenyl)propionate] |  |  |  | 33.9 ± 14.0 % | 88.1% | 4.8 ± 1.9 mg | 
5 | CCOc1cc(C(CC(=O)OC)N2C(=O)c3cccc(NC(C)=O)c3C2=O)ccc1OC1CCCC1 (stereo not drawn) [Example 20, methyl 3-(4-acetamido-1,3-dioxoisoindolin-2-yl)-3-(3-ethoxy-4-cyclopentyloxyphenyl)propionate] |  |  |  | 63.9 ± 19.3 % | 73.0% | 8.8 ± 2.8 mg | 
6 | CCOc1cc(C(CC(=O)OC)N2C(=O)c3cccc(N(C)C(C)=O)c3C2=O)ccc1OC (stereo not drawn) [Example 24, methyl 3-(4-(N-methylacetamido)-1,3-dioxoisoindolin-2-yl)-3-(3-ethoxy-4-methoxyphenyl)propionate] | 43.0 ± 11.8 % | 84.2% | 5.9 ± 1.7 mg |  |  |  | 
7 | CCOc1cc(C(CC(=O)OC)N2C(=O)c3ccc(NC(C)=O)cc3C2=O)ccc1OC (stereo not drawn) [Example 25, methyl 3-(5-acetamido-1,3-dioxoisoindolin-2-yl)-3-(3-ethoxy-4-methoxyphenyl)propionate] | 59.1 ± 17.5 % | 73.6% | 8.5 ± 2.7 mg |  |  |  | 
8 | CCCOc1cc(C(CC(=O)OC)N2C(=O)c3cccc(NC(C)=O)c3C2=O)ccc1OC (stereo not drawn) [Example 29, methyl 3-(4-acetamido-1,3-dioxoisoindolin-2-yl)-3-(3-propoxy-4-methoxyphenyl)propionate] |  |  |  | 46.8 ± 33.9 % | 81.5% | 6.5 ± 4.6 mg | 
9 | COC(=O)CC(c1ccc(OC)c(OC2CCCC2)c1)N1C(=O)c2cccc(NC(C)=O)c2C1=O (stereo not drawn) [Example 30, methyl 3-(4-acetamido-1,3-dioxoisoindolin-2-yl)-3-(3-cyclopentyloxy-4-methoxyphenyl)propionate] |  |  |  | 85.0 ± 27.4 % | 60.8% | 12.0 ± 3.5 mg | 
10 | CCOc1cc(C(CC(=O)OC)N2C(=O)c3cccc(O)c3C2=O)ccc1OC (stereo not drawn) [Example 32, methyl 3-(4-hydroxy-1,3-dioxoisoindolin-2-yl)-3-(3-ethoxy-4-methoxyphenyl)propionate] |  |  |  | 93.3 ± 28.1 % | 55.6% | 13.4 ± 4.0 mg | 
11 | CCOC(=O)C[C@H](c1ccc(OC)c(OCC)c1)N1C(=O)c2cccc(NC(C)=O)c2C1=O [Example 51, ethyl (R)-3-(4-acetamido-1,3-dioxoisoindolin-2-yl)-3-(3-ethoxy-4-methoxyphenyl)propionate] |  |  |  |  |  |  | Inhibitory Rate of Ear Swelling [3]: 25.0%; Weight Changes of Animals, Day 1 [3]: 21.8 ± 0.7 g; Weight Changes of Animals, Day 10 [3]: 22.8 ± 1.2 g; Weight Changes of Animals, Day 17 [3]: 23.1 ± 1.1 g; Weight Changes of Animals, Day 18 [3]: 22.9 ± 1.3 g; Ear Swelling Degree [3]: 21.7 ± 4.5 mg; IgE Concentration [3]: 6599.5 ± 2996.0 ng/mL; Inhibitory Rate of IgE Concentration [3]: 23.3%
